Test results from patent US9867795B2, “Nitrated lipids and methods of making and using thereof” (The UAB Research Foundation, priority 2004, dated 2018).
Several values for one entry are separate records, joined by “and”; a condition that tells them apart may be missing. Identical values can stand only once. Entries after “also recorded” stand apart in the source; their conditions may differ.

What was measured:
3T3-L1 preadipocytes = conditions: for 3T3-L1 preadipocyte differentiation induced: two weeks, oil red O, LNO2 3 μM, OA-NO2 1 μM
[1] = LNO2 and OA-NO2 decay in phosphate buffer; type: physicochemical; conditions: 3 μM, 100 mM phosphate buffer, pH 7.4, 37° C.
Experimental: LNO2 and OA-NO2 decay. […] During the two hour incubation, aliquots were removed and analyzed for LNO2 and OA-NO2 content. […] Non-decayed LNO2 and OA-NO2 were quantitated via HPLC ESI-MS/MS as described above.

3T3-L1 adipocytes = test: [^3H]-2-Deoxy-D-glucose uptake assay in differentiated 3T3-L1 adipocytes; type: cell-based; conditions: test compounds for 2 days; LNO2 1-10 μM
Experimental: [^3H]-2-Deoxy-D-glucose Uptake Assay in Differentiated 3T3-L1 Adipocyte. [^3H]-2-Deoxy-D-glucose uptake assay as previously described (19) 3T3-L1 preadipocytes were grown in 24-well tissue culture plates, 2-day postconfluent preadipocytes were treated by 10 μg/ml insulin (Sigma), 1 μM dexamethasone (Sigma), and 0.5 mM 3-isobutyl-1-methylxanthine (Sigma) in DMEM containing 10% FBS for two days, then cells were kept in 10 μg/ml insulin also in DMEM containing 10% FBS for 6 days (changed medium every three days). Eight days after induction of adipogenesis, test compounds in DMEM containing 10% FBS were added for an additional 2 days (changed medium every day) and PPARγ-specific antagonist GW9662 were pretreated 1 h before other additions. After two rinses with serum-free DMEM, cells were incubated for 3 h in serum-free DMEM and rinsed at room temperature three times with freshly prepared KRPH buffer (5 mM phosphate buffer, 20 mM HEPES, 1 mM MgSO4, 1 mM CaCl2, 136 mM NaCl, 4.7 mM KCl, pH 7.4). The buffer was replaced with 1 μCi/ml of [^3H]-2-deoxy-D-glucose in KRPH buffer for 10 min at room temperature. The treated cells were rinsed carefully three times with cold PBS, lysed overnight in 0.8N NaOH (0.4 ml/well), and neutralized with […] of 12N HCl. Lysate (360 μl) was added to 4 ml Scinti-Safe Plus TM 50% in a scintillation vial, and the vials were mixed and counted.
[^3H]-2-Deoxy-D-glucose uptake assay in differentiated 3T3-L1 adipocytes. [^3H]-2-deoxy-D-glucose uptake was analyzed as previously (23). […] Cells were then rinsed three times with cold PBS, lysed overnight in 0.8 N NaOH (0.4 ml/well), neutralized with 26.6 μl of 12 N HCl and 360 μl of lysate was added into 4 ml Scinti-Safe Plus™ 50% for radioactivity determination by liquid scintillation counting.

[2] = Storage stability in CH3OH under argon at −80° C.; type: physicochemical; conditions: in CH3OH/methanol under argon at −80° C.
Experimental: LNO2 synthesis. Linoleic acid/HgCl2/phenylselenium bromide/NaNO2 (1:1.3:1:1, mol/mol) were combined in THF/acetonitrile (1:1, v/v) with a final concentration of 0.15 M linoleic acid. Care was taken to use anhydrous solvents, dry glassware and reagents that had been dried in vacuo over phosphorus pentoxide. The reaction mixture was stirred (4 h, 25° C.) followed by centrifugation to sediment the precipitate. The supernatant was recovered, the solvent evaporated in vacuo, the product mixture redissolved in THF (original volume) and the temperature reduced to 0° C. A 10-fold molar excess of H2O2 was slowly added with stirring to the mixture then allowed to rest in an ice bath for 20 min followed by a gradual warming to room temp (45 min). The product mixture was extracted with equal parts saturated NaCl and diethyl ether, the organic phase collected, the solvent removed in vacuo and the lipid products were resolvated in CH2Cl2/CH3OH (4:1, v/v). […] Under these conditions, purified nitrated linoleic acid is stable for >3 months. Large scale purification of the individual positional isomers was performed by preparative HPLC using a 250×21.2 mm C18 Phenomenex Luna column (5 μm particle size). […]

[3] = pH dependency of •NO formation from LNO2 (EPR, cPTIO reduction); conditions: 80 μM LNO2, buffers with different pHs
Experimental: Electron paramagnetic resonance—EPR measurements were performed at room temperature using a Bruker Elexsys E-500 spectrometer equipped with an ER049X microwave bridge and an AquaX liquid sample cell. The following instrument setting were used: modulation frequency, 100 kHz; modulation amplitude, 0.05 G; receiver gain, 60 dB; time constant, 1.28 ms; sweep time, 5.24 s; center field, 3510 G; sweep width, 100 G; power, 20 mW; scan parameter, 16 scans.
Due to limitations of the •NO-cPTIO reaction for quantitating yields of NO, oxymyoglobin was utilized to measure •NO release rates (24).

Substance	3T3-L1 preadipocyte differentiation induced (3T3-L1 preadipocytes)	decay after 2 hr [1]	share degraded after 2 hr [1]	[^3H]-2-deoxy-D-glucose uptake (3T3-L1 adipocytes)	time stable on storage [2]	pH of maximal •NO release [3]	expression of adipocyte markers (PPARγ2 and aP2) (3T3-L1 preadipocytes; immunoblot of cell lysate)
9- and 10-nitro-9-cis-octadecenoic acid [OA-NO2]	~60%	only minimal decay	25%	induced an increase; also recorded: induced significant increases in glucose uptake	> 3 months	–	–
10-nitro-9,12-octadecadienoic acid and 12-nitro-9,12-octadecadienoic acid [LNO2]	> 30% and ~30%	–	~80%	dose-dependent increase in glucose uptake; also recorded: greater than that observed for equimolar 15-deoxy-PGJ2, equivalent to Rosiglitazone; also recorded: paralleled	> 3 months	7.4	resulted in expression of specific adipocyte markers
